Experimental findings from paper PMC7663979, “Design of Novel 4-Aminobenzofuroxans and Evaluation of Their Antimicrobial and Anticancer Activity” (International Journal of Molecular Sciences, 2020) are described below.

Structures are written as SMILES.

Assay [1] deals with Microdochium nivale isolate 1. Kind of assay: Fungistatic activity, agar growth medium poison technique, isolate 1. The assay is classed as cell-based. Particulars: 1 mM in PSA; for inhibition at 1000 µM: Microdochium nivale; for inhibition at 1000 µM / growth inhibition: 20 °C. As for the experimental part:
(§1) Fungistatic activity of the tested compounds was assessed in vitro using agar growth medium poison technique. The target compounds as well as widely used fungicides benzimidazole and carbendazim were dissolved to 10 mM concentration in 20% Tween 20. The obtained solutions were added 1:9 v/v (giving 1 mM-concentrations of the target compounds) to potato-sucrose agar (PSA) at 60 °C, mixed thoroughly and transferred to Petri dishes. For the control variants, PSA was supplemented with 20% Tween 20 (9:1). Fungistatic effect was tested against two isolates of Microdochium nivale causing snow mold disease of winter cereals (rye) from the culture collection of FRC Kazan Scientific Center of RAS. […] The center of each solidified medium was inoculated upside-down with 5-mm diameter mycelial plug cut from the periphery of 10-day-old cultures. The tested dishes were incubated at 20 °C. The percentage growth inhibition was calculated using Abbott’s formula (1):%Inhibition = [(A − B) ÷ A] × 100(1) where ‘A’ is mycelia growth in the control conditions and ‘B’ is mycelia growth in the treatment conditions. The assay was performed at least in triplicate. Linear growth of each colony was determined during 6 days.

Assay [2] relates to Microdochium nivale isolate 21. Kind of assay: Fungistatic activity, agar growth medium poison technique, isolate 21. The format is cell-based. Particulars: 1 mM in PSA; for inhibition at 1000 µM: Microdochium nivale. As for the experimental part:
as §1

The subject of the next assay is M-HeLa. Kind of assay: Cytotoxicity assay (Cytell Cell Viability BioApp), M-HeLa. The assay is classed as cell-based, human. Particulars: for IC50: Homo sapiens, M-HeLa, mean ± SD, three experiments; for SI M-HeLa: selectivity index = IC50 normal cells (Chang liver) / IC50 cancer cells, n.s. = no selectivity.
Another assay has as its system MCF7. As to the kind of experiment: Cytotoxicity assay (Cytell Cell Viability BioApp), MCF7. The assay is classed as cell-based, human. Particulars: for IC50: Homo sapiens, MCF7, mean ± SD, three experiments; for SI MCF7: selectivity index = IC50 normal cells (Chang liver) / IC50 cancer cells, n.s. = no selectivity.
A further assay has as its system PANC-1. As to the kind of experiment: Cytotoxicity assay (Cytell Cell Viability BioApp), PANC-1. The format is cell-based, human. Particulars: for IC50: Homo sapiens, PANC-1, mean ± SD, three experiments; for SI PANC-1: selectivity index = IC50 normal cells (Chang liver) / IC50 cancer cells, n.s. = no selectivity.
Another assay relates to T98G. As to the kind of experiment: cells. The assay is classed as cell-based, human. Particulars: for IC50: Homo sapiens, T98G, read-out: IC50 T98G; for SI T98G: selectivity index = IC50 normal cells (Chang liver) / IC50 cancer cells, n.s. = no selectivity.
The subject of a further assay is Chang Liver. Kind of assay: Cytotoxicity assay (Cytell Cell Viability BioApp), normal Chang liver cells. Particulars: Homo sapiens, mean ± SD, three experiments, read-out: IC50 Chang Liver (normal cell line). The assay is classed as cell-based.

`O=[N+]([O-])c1c(Cl)cc2c(no[n+]2[O-])c1Cl` [4,6-dichloro-5-nitrobenzofuroxan, reference compound]: the “fungistatic activity (result in words)” value in assay [1] and in assay [2] was “not effective” each time.

On to `O=[N+]([O-])c1c(Cl)cc2c(no[n+]2[O-])c1Nc1ccc(F)cc1` [Compound 3a, 6-chloro-4-((4-fluorophenyl)amino)-5-nitrobenzofuroxan], for which the half-inhibitory concentration (IC50) – broadly, the concentration that inhibits the measured activity by half – with M-HeLa was 45.9 ± 3.7 µM; with MCF7 it was over 100 µM; in the assay on PANC-1 it was over 100 µM; in the assay with T98G, 28.3 ± 2.3 µM; in the assay on Chang Liver it was 93.8 ± 8.3 µM. For the same compound, in the assay with M-HeLa, the “SI M-HeLa” value is given as 2.0. In the assay on MCF7, the “SI MCF7” value is “n.s”. The “SI PANC-1” value in the assay on PANC-1 is on record as “n.s”. Also, the “SI T98G” value in the assay on T98G is 3.3.

On to `O=[N+]([O-])c1c(Cl)cc2c(no[n+]2[O-])c1Nc1ccc(Cl)cc1` [Compound 3b, 6-chloro-4-((4-chlorophenyl)amino)-5-nitrobenzofuroxan], for which the inhibition (usually the relative decrease from the control value, in per cent) at 1000 µM was over 40% in assay [1] (fifth day of incubation); over 25% in assay [1] (sixth day of incubation); over 40% in assay [2] (fifth day of incubation, 20 °C); over 25% in assay [2] (sixth day of incubation, 20 °C). Besides, the concentration for half-maximal inhibition (IC50) was determined as 60.6 ± 4.7 µM in the assay with M-HeLa; 69.2 ± 5.7 µM with MCF7; 82.7 ± 7.3 µM in the assay with PANC-1; 12.7 ± 1.1 µM with T98G; 62.7 ± 5.5 µM in the assay on Chang Liver. The “SI M-HeLa” value with M-HeLa is on record as 1.0. Further, the “SI MCF7” value with MCF7 is listed as “n.s”. Besides, in the assay with PANC-1, the “SI PANC-1” value is “n.s”. Further, the “SI T98G” value in the assay with T98G was 5.0.

As to `N#Cc1ccc(Nc2c([N+](=O)[O-])c(Cl)cc3c2no[n+]3[O-])cc1` [Compound 3d, 6-chloro-4-((4-cyanophenyl)amino)-5-nitrobenzofuroxan], in the assay on M-HeLa, the IC50 turned out to be 16.6 ± 1.4 µM and the “SI M-HeLa” value was over 6. Besides, in the assay on MCF7, the IC50 is 67.9 ± 5.7 µM and the “SI MCF7” value is on record as over 1.5. Moreover, in the assay with PANC-1, the IC50 amounted to 61.3 ± 5.1 µM and the “SI PANC-1” value is given as over 1.6. In the assay with T98G, the 50% inhibitory concentration (IC50) is 14.7 ± 1.2 µM and the “SI T98G” value is reported as over 6.8. In addition, the concentration for half-maximal inhibition (IC50) in the assay on Chang Liver is over 100 µM.

With `COc1ccccc1Nc1c([N+](=O)[O-])c(Cl)cc2c1no[n+]2[O-]` [Compound 3e, 6-chloro-4-((2-methoxyphenyl)amino)-5-nitrobenzofuroxan], the entries for the “fungistatic activity (result in words)” value in assay [1] and in assay [2] were “inefficient” and “one of the most pronounced inhibitory effects”, respectively. Also, the concentration for half-maximal inhibition (IC50) in the assay on M-HeLa is 62.7 ± 5.4 µM; in the assay on MCF7, 79.5 ± 6.4 µM; in the assay with PANC-1, 50 ± 4.1 µM; with T98G, 21.5 ± 1.8 µM; in the assay with Chang Liver it was 62.7 ± 5.6 µM. The “SI M-HeLa” value in the assay on M-HeLa was 1.0. Moreover, the “SI MCF7” value in the assay with MCF7 was “n.s”. Further, the “SI PANC-1” value with PANC-1 is 1.3. The “SI T98G” value in the assay with T98G is on record as 3.0.

As to `CCCCNc1c([N+](=O)[O-])c(Cl)cc2c1no[n+]2[O-]` [Compound 5a, 4-(butylamino)-6-chloro-5-nitrobenzofuroxan], the “fungistatic activity (result in words)” value in assay [1] was “one of the most effective”. In addition, the growth inhibition result in assay [2] (sixth day of incubation, 20 °C) is “did not cause any inhibition”. In assay [2] (fifth day of incubation, 20 °C), 1000 µM produced 10% inhibition. In the assay on M-HeLa, half-maximal inhibition (IC50) was put at 56.5 ± 4.5 µM and the “SI M-HeLa” value was 1.8. In the assay with MCF7, the half-maximal inhibitory concentration (IC50) was over 100 µM and the “SI MCF7” value is listed as “n.s”. For the same compound, in the assay with PANC-1, the 50% inhibitory concentration (IC50) was over 100 µM and the “SI PANC-1” value is reported as “n.s”. For the same compound, in the assay on T98G, the IC50 stood at 22.7 ± 1.9 µM and the “SI T98G” value turned out to be 4.4. In addition, in the assay with Chang Liver, the half-maximal inhibitory concentration (IC50) is 100 µM.

As to `CCCCCCNc1c([N+](=O)[O-])c(Cl)cc2c1no[n+]2[O-]` [Compound 5b, 6-chloro-4-(hexylamino)-5-nitrobenzofuroxan], the IC50 was 60.8 ± 4.8 µM with M-HeLa; over 100 µM in the assay with MCF7; 50 ± 3.9 µM with PANC-1; 65 ± 5.8 µM with T98G; over 100 µM with Chang Liver. For the same compound, the “SI M-HeLa” value in the assay with M-HeLa is over 1.6. For the same compound, the “SI MCF7” value in the assay with MCF7 is reported as “n.s”. In the assay with PANC-1, the “SI PANC-1” value is listed as over 2. For the same compound, the “SI T98G” value in the assay on T98G is given as over 1.5.

With `O=[N+]([O-])c1c(Cl)cc2c(no[n+]2[O-])c1NC1CCCCC1` [Compound 5d, 6-chloro-4-(cyclohexylamino)-5-nitrobenzofuroxan], the half-inhibitory concentration (IC50) in the assay on M-HeLa was 61 ± 5.2 µM; in the assay with MCF7 it was 79.1 ± 6.2 µM; with PANC-1, over 100 µM; in the assay on T98G, 31.6 ± 2.5 µM; in the assay with Chang Liver, 67.1 ± 5.7 µM. Besides, in the assay with M-HeLa, the “SI M-HeLa” value turned out to be 1.1. The “SI MCF7” value in the assay with MCF7 is on record as “n.s”. Moreover, the “SI PANC-1” value in the assay on PANC-1 is given as “n.s”. Also, the “SI T98G” value in the assay with T98G came out at 2.1.

On to `O=[N+]([O-])c1c(Cl)cc2c(no[n+]2[O-])c1NN1CCOCC1` [Compound 5e, 6-chloro-4-(morpholinoamino)-5-nitrobenzofuroxan], for which, in the assay with M-HeLa, the midpoint of inhibition, the IC50, lay at 61.6 ± 5.2 µM and the “SI M-HeLa” value came to 1.1. For the same compound, in the assay with MCF7, the IC50 is over 100 µM and the “SI MCF7” value is recorded as “n.s”. In the assay on PANC-1, the concentration for half-maximal inhibition (IC50) is over 100 µM and the “SI PANC-1” value is given as “n.s”. Besides, in the assay with T98G, the IC50 was determined as 57.1 ± 4.3 µM and the “SI T98G” value came to 1.1. Moreover, the half-inhibitory concentration (IC50) with Chang Liver worked out at 65.2 ± 5.8 µM.

Consider `CN(Cc1ccccc1)c1c([N+](=O)[O-])c(Cl)cc2c1no[n+]2[O-]` [Compound 5f, 4-(benzyl(methyl)amino)-6-chloro-5-nitrobenzofuroxan], for which the inhibition at 1000 µM is under 20% in assay [1] (fifth day of incubation); under 10% in assay [1] (sixth day of incubation); under 20% in assay [2] (fifth day of incubation, 20 °C); under 10% in assay [2] (sixth day of incubation, 20 °C). In addition, the half-inhibitory concentration (IC50) in the assay on M-HeLa was 62.2 ± 5.6 µM; with MCF7 it was over 100 µM; with PANC-1, over 100 µM; with T98G, over 100 µM; in the assay with Chang Liver, over 100 µM. In the assay with M-HeLa, the “SI M-HeLa” value is over 1.6. The “SI MCF7” value in the assay on MCF7 is on record as “n.s”. Further, in the assay with PANC-1, the “SI PANC-1” value is given as “n.s”. In the assay on T98G, the “SI T98G” value is listed as “n.s”.

In the case of `COc1cccc2c1C(=O)c1c(O)c3c(c(O)c1C2=O)C[C@@](O)(C(=O)CO)C[C@@H]3O[C@H]1C[C@H](N)[C@H](O)[C@H](C)O1` [Doxorubicin, reference compound], in the assay with M-HeLa, inhibition was half-maximal at 3 ± 0.1 µM (IC50) and the “SI M-HeLa” value came out at 1.0. Moreover, in the assay with MCF7, the IC50 is 3 ± 0.2 µM and the “SI MCF7” value is recorded as 1.0. Besides, in the assay on PANC-1, the IC50 stood at 3.3 ± 0.1 µM and the “SI PANC-1” value is reported as 1.0. Further, in the assay with T98G, the half-inhibitory concentration (IC50) came to 6.8 ± 0.5 µM and the “SI T98G” value is reported as “n.s”. Further, the half-maximal inhibitory concentration (IC50) with Chang Liver is 3 ± 0.2 µM.

Take `c1ccc2[nH]cnc2c1` [benzimidazole, reference compound]: in assay [1] (fifth day of incubation), the growth inhibition entry is listed as “null inhibitory effect”.

As to `COC(=O)Nc1nc2ccccc2[nH]1` [carbendazim, methyl-2-benzimidazole carbamate, reference compound], the growth inhibition result in assay [1] (fifth day of incubation) was “null inhibitory effect”. In addition, the inhibition at 1000 µM in assay [2] (sixth day of incubation, 20 °C) is 100%.
